The values below come from publication PMC11434749, “In Vitro Interaction of Binuclear Copper Complexes with Liver Drug-Metabolizing Cytochromes P450” (Pharmaceuticals, 2024).

SMILES strings stand for the structures.

One data set has as its target T1, CYP2E1 (Homo sapiens, UniProt P05181).
T1 construct: Pooled human liver microsomes were obtained from Biopredic (Rennes, France); tissue Biopredic (Rennes, France); host or cells: pooled human liver microsomes, seventeen donors
The experiment in a line: Inhibition of CYP2E1 activity (chlorzoxazone 6-hydroxylation) in human liver microsomes. The note with it: HLM, chlorzoxazone 30 µmol·L^−1, preincubation 30 min at 37 °C, Mean ± S.D. The data set is classed as in vitro ADME. As to the method: (§1) The following enzyme assays were performed to determine the activities of specific CYP enzymes: CYP1A2, 7-ethoxyresorufin O-deethylation; CYP2A6, coumarin 7-hydroxylation; CYP2B6, 7-ethoxy-4-(trifluoromethyl) coumarin (EFC) O-deethylation; CYP2C8 paclitaxel 6α-hydroxylation; CYP2C9, diclofenac 4′-hydroxylation; CYP2C19, diazepam N-desmethylation; CYP2D6, bufuralol 1′-hydroxylation; CYP2E1, chlorzoxazone 6-hydroxylation; and CYP3A4/5, testosterone 6β-hydroxylation. […]
(§2) For the determination of metabolites formed from specific substrates, a Prominence LC-20A HPLC system (Shimadzu, Kyoto, Japan) with UV detection or fluorescence detection was used (see Table 2). […]
(§3) Initially, for each enzyme assay, a preliminary experiment was carried out to determine Km and Vmax to obtain the appropriate concentration of the specific substrates for the inhibition experiments (the substrate concentration was chosen in the range corresponding to the value of the Km for each particular reaction). Data were analyzed using the Sigma plot software, as mentioned above, with spectral studies. […] In all cases, the inhibition of individual CYP activities was evaluated by plotting the respective remaining activity against the inhibitor concentration.
On the technique in general: Liver microsomes are vesicles of endoplasmic reticulum, rich in cytochrome P450 enzymes.

A further data set addresses T2, CYP2C8 (Homo sapiens, UniProt P10632).
T2 construct: Pooled human liver microsomes were obtained from Biopredic (Rennes, France); tissue Biopredic (Rennes, France); host or cells: pooled human liver microsomes, seventeen donors
T2 sequence (P10632 1-490): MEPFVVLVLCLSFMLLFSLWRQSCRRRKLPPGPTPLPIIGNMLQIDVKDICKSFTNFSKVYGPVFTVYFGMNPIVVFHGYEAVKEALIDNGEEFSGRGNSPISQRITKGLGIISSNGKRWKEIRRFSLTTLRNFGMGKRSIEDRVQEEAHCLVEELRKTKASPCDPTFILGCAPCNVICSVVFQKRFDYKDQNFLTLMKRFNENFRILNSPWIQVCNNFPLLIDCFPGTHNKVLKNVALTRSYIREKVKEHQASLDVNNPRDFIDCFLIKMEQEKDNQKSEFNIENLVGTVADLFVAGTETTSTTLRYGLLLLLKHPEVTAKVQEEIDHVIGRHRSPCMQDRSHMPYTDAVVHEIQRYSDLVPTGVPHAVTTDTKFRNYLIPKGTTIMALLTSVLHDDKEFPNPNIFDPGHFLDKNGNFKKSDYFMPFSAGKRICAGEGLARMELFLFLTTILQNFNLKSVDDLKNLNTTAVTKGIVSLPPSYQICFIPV
The data set is described as follows: Inhibition of CYP2C8 activity (paclitaxel 6α-hydroxylation) in human liver microsomes. In kind it is in vitro ADME. As to conditions: HLM, paclitaxel 50 µmol·L^−1, preincubation 30 min at 37 °C, Mean ± S.D. As to the method:
as §1, §2, §3

The next data set deals with S. aureus. More on the design: method as in doi:10.1016/j.ica.2022.121273. The note with it: Gram-positive; cited from earlier work.
The target of the next data set is T3, CYP2D6 (Homo sapiens, UniProt P10635).
T3 construct: Pooled human liver microsomes were obtained from Biopredic (Rennes, France); tissue Biopredic (Rennes, France); host or cells: pooled human liver microsomes, seventeen donors
The data set is described as follows: Inhibition of CYP2D6 activity (bufuralol 1′-hydroxylation) in human liver microsomes. In kind it is in vitro ADME. The note with it: HLM, bufuralol 15 µmol·L^−1, preincubation 30 min at 37 °C, Mean ± S.D. The method, then:
as §1, §2, §3

In the next data set the test system is E. coli. More on the design: method as in doi:10.1016/j.ica.2022.121273. The note with it: Gram-negative; cited from earlier work.
The subject of a further data set is P. aeruginosa. More on the design: method as in doi:10.1016/j.ica.2022.121273. As to conditions: Gram-negative; cited from earlier work.
The next data set has as its system CYP3A4. The data set is described as follows: Inhibition of CYP3A4 activity (testosterone 6β-hydroxylation) in human liver microsomes. The note with it: HLM, testosterone 100 µmol·L^−1, preincubation 30 min at 37 °C, Mean ± S.D. The data set is classed as in vitro ADME. The method, then:
as §1, §2, §3

The next data set deals with E. faecalis. More on the design: method as in doi:10.1016/j.ica.2022.121273. As to conditions: Gram-positive; cited from earlier work.

T3 sequence (P10635 whole entry): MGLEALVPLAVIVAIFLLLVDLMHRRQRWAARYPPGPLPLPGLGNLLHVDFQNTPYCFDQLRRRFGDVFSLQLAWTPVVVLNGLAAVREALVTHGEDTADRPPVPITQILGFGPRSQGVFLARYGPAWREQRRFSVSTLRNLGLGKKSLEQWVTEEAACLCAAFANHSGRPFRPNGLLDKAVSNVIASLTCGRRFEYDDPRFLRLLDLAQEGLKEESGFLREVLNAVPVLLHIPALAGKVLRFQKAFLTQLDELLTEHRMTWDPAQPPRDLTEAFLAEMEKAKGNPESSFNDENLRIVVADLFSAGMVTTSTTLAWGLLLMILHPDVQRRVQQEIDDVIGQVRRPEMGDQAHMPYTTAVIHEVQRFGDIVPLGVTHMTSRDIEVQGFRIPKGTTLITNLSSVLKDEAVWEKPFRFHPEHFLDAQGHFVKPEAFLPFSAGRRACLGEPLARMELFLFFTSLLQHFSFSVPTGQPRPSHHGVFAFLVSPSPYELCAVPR
T1 sequence (P05181 whole entry): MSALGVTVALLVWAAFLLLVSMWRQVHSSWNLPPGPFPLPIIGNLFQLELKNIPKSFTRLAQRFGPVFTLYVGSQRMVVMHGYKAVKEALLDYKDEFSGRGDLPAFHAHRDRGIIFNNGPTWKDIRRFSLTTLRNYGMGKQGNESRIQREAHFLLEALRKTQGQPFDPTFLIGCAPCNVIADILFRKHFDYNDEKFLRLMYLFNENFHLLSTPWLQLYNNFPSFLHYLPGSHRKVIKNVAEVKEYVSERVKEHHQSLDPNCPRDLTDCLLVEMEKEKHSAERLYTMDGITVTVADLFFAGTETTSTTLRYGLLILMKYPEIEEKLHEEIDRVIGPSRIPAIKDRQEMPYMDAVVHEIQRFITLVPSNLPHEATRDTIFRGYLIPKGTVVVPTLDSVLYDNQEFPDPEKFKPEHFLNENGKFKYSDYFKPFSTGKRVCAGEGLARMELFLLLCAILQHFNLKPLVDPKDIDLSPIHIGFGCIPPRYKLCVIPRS

As a reminder, the IC50 is the point on the concentration scale where inhibition reaches its midpoint. On to `CN(C)CCN(C)CCN(C)C.CN(C)CCN(C)CCN(C)C.O.O.O=C([O-])CCSSCCC(=O)[O-].[Cu+2].[Cu+2].[O-][Cl+3]([O-])([O-])[O-].[O-][Cl+3]([O-])([O-])[O-]` [Complex No. 6, [Cu2(μ-dtdp)(pmdien)2(H2O)2](ClO4)2], for which the concentration for half-maximal inhibition (IC50) against CYP2E1 is 6.59 ± 0.18 µM; against CYP2C8 it was 3.4 ± 0.1 µM; against CYP2D6 it was 6.33 ± 0.22 µM; in the data set with CYP3A4 it was 3.62 ± 0.27 µM. For the same molecule, the “MIC S. aureus” value in the data set on S. aureus is 8.44 µg/mL. For the same molecule, the “MIC E. coli” value in the data set with E. coli is 16.88 µg/mL. For the same molecule, the “MIC P. aeruginosa” value in the data set with P. aeruginosa was 1.05 µg/mL. The “MIC E. faecalis” value in the data set with E. faecalis is 8.44 µg/mL.

As for `CN(C)CCN(C)CCN(C)C.CN(C)CCN(C)CCN(C)C.O.O.O=C([O-])/C=C/C(=O)[O-].[Cu+2].[Cu+2].[O-][Cl+3]([O-])([O-])[O-].[O-][Cl+3]([O-])([O-])[O-]` [Complex No. 5, [Cu2(μ-fu)(pmdien)2(H2O)2](ClO4)2], the IC50 against CYP2E1 stood at 12.5 ± 0.18 µM; against CYP2C8, 3.66 ± 0.19 µM; at CYP2D6, 12.4 ± 0.21 µM; with CYP3A4, 3.72 ± 0.23 µM. For the same molecule, in the data set on S. aureus, the “MIC S. aureus” value was 1.05 µg/mL. In addition, in the data set with E. coli, the “MIC E. coli” value is 8.44 µg/mL. The “MIC P. aeruginosa” value in the data set with P. aeruginosa was 2.11 µg/mL. For the same molecule, in the data set on E. faecalis, the “MIC E. faecalis” value is 4.22 µg/mL.
